Experiments:
[1] = test system: C. albicans mono-species biofilm; experiment: biofilm formation on polystyrene (XTT, CFU); format: cell-based, Candida albicans; settings: treated vs untreated mono-species biofilms
Method: The effect of L-161,982 on biofilm formation was tested. Mono- and dual-species C. albicans and/or S. aureus biofilms were grown on 96-well plates for 24 h with the indicated concentration of L-161, 982. After incubation, metabolic activity of biofilms was quantified by the XTT assay (A) and then biofilms were disrupted to determine live colony forming units (CFU) (B). The results are cumulative of three independent experiments with duplicate samples. Statistics was performed using One-way ANOVA with the Tukey post-hoc test for the XTT assay. The Mann-Whitney U test was used to analyze CFU data. Significance is indicated as follows: ns—not significant, *P<0.05; *** P<0.001. Error bars represent standard deviation.
Following growth as described above, microbes were washed in phosphate-buffered saline (PBS) by centrifugation, counted on a hemocytometer, and adjusted to 2×10^7 CFU/ml in RPMI buffered with MOPS (165 mM). […]
The XTT reduction assay was used to determine the metabolic activity of biofilms following treatment with L-161, 982 (17). Briefly, wells were washed once in PBS, and plates incubated at 37° C. for 2 h with 200 μl XTT working reagent (0.5 mg/ml XTT and 1 μM Menadione) and the resulting absorbance measured at 490 nm on a microplate spectrophotometer. […]

[2] = 10 mg/kg body weight; cited from earlier work
S. aureus [3] = experiment: ATP detection assay (BacTiter-Glo); format: cell-based, Staphylococcus aureus; settings: 12.5-200 μg/ml, 5 h
Method: S. aureus was incubated with various concentrations of L-161,982 in a 96-well plate in triplicate for 5 h at 37° C. ATP production was measured in samples normalized to viable cell number using the BacTiter-Glo™ Assay (Promega) and measuring luminescence. Background luminescence from media alone samples was subtracted from experimental samples. Results represent the means+/−standard deviation. Data shown are representative of two independent experiments. ** p<0.01; *** p<0.001 control vs drug-treated.
ATP detection assay. S. aureus was diluted 100-fold in 10 ml of fresh Mueller Hinton II broth which was used as the inoculum. The inoculum was incubated with various concentrations of L-161,982 (12.5-200 μg/ml) in a 96-well plate in triplicate for 5 h at 37° C. After incubation, cells L-161,982 were stained with LIVE/DEAD Baclight bacterial viability stain (Invitrogen) and viable cells were counted. Samples were normalized to viable cell number before transferring to an opaque-walled 96-well plate. An equal volume of BacTiter-Glo™ Reagent (Promega) was added. The plate was allowed to develop for 5 min at room temperature. Luminescence was quantified using a BioTek Synergy 2 plate reader. A media alone control was used to detect background luminescence.

HCA-7 colon cancer cells = settings: 10 μM; cited from earlier work
human EP4 receptors = human EP4 receptors (Homo sapiens, UniProt P35408); settings: cited from earlier work
EP2 = EP2 (Homo sapiens, UniProt P43116); settings: cited from earlier work
S. aureus [4] = experiment: generation of hydroxyl radicals (thiourea scavenger); format: cell-based, Staphylococcus aureus; settings: 50 μg/ml, 150 mM thiourea
Method: (A) Effects of reactive oxygen species inhibitors. Growth of S. aureus was monitored for up to 6 h in medium alone or medium supplemented with 15 mM of Na-L-ascorbate, and/or 15 mM N-acetyl-L-cysteine, and/or 50 μg/ml L-161, 982. Data shown are representative of two independent experiments. (B) Effects of hydroxyl radical scavengers. Growth was monitored for 4 h in medium alone or medium supplemented with 50 μg/ml L-161, 982 or 1 mM H2O2 alone, plus 150 mM thiourea, or plus 500 μM 2,2′-dipyridyl.
Generation of hydroxyl radicals. Antibiotic induced hydroxyl radical production was measured as previously described (12). Overnight cultures of S. aureus were diluted 1:100 in TSB and grown for 3 h at 37° C. with shaking to mid-log phase. Cultures were diluted in TSB to OD600=0.05 and L-161, 982 was added at a final concentration of 50 µg/ml+/−H2O2 (1 mM; Sigma) or thiourea (150 mM; Sigma). Cultures were incubated at 37° C. with shaking and aliquots were removed at t(0) and at 1 h intervals duplicate, diluted 1:100 and optical density measured at 600 nm (OD600) or serially diluted and plated onto SDA and grown at 37° C. for 24 h for CFU enumeration.

Chain of human EP4 receptors (P35408 whole entry): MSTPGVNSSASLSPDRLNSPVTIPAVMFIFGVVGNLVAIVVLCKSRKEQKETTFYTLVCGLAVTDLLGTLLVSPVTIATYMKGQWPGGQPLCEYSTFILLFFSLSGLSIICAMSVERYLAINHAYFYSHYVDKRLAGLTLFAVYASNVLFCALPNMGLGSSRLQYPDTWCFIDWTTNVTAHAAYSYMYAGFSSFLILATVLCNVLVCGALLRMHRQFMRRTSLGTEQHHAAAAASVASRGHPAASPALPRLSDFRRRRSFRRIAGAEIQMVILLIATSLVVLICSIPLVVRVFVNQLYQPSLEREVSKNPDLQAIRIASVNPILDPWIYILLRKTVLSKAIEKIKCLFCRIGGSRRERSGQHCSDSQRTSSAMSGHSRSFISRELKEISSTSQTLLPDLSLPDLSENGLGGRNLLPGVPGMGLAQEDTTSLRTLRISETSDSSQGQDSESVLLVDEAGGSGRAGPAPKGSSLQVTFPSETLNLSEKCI
Chain of EP2 (P43116 whole entry): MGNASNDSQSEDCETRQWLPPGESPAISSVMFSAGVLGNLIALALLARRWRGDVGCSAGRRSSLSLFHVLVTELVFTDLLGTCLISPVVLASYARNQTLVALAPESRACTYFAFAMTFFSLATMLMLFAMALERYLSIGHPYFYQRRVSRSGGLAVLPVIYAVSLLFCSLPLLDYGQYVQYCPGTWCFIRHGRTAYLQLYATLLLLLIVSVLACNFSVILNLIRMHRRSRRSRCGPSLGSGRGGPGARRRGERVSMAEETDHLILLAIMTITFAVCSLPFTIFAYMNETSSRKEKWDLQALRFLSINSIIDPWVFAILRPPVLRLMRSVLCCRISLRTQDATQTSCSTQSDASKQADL

## CCCCc1nn(-c2ccccc2C(F)(F)F)c(=O)n1Cc1ccc(-c2ccccc2S(=O)(=O)NC(=O)c2sccc2C)cc1 [L-161, 982, N-[[4′-[[3-Butyl-1,5-dihydro-5-oxo-1-[2-(trifluoromethyl)phenyl]-4H-1,2,4-triazol-4-yl]methyl][1,1′-biphenyl]-2-yl]sulfonyl]-3-methyl-2-thiophenecarboxamide]
[1]
  metabolic activity during biofilm formation: no significant inhibition
[2]
  toxic effects: no apparent toxic effects
S. aureus [3]
  ATP production: significantly inhibited ATP production
HCA-7 colon cancer cells
  effect on PGE2-induced cell proliferation: blocks PGE2-induced cell proliferation
Human EP4 receptors
  Ki: 0.024 µM
EP2
  Ki: 23 µM
S. aureus [4]
  effect of thiourea on growth inhibition: did not alleviate
